The text below walks through data of PubChem BioAssay (NCI).

Holding throughout (experiment): NCI tumour cell line growth inhibition, 48 h
Assay [1] deals with MALME-3M melanoma.
Assay [2] deals with OVCAR-5 ovarian.
Assay [3] has as its system NCI-H226 lung.
The test system of assay [4] is NCI-H23 lung.
The subject of assay [5] is HCC-2998 colon.
Assay [6] deals with OVCAR-4 ovarian.
Assay [7] concerns SK-MEL-2 melanoma.
The subject of assay [8] is HT29 colon.
Assay [9] concerns SK-MEL-5 melanoma.
Assay [10] has as its system MDA-MB-231 breast.

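Following 48 hours of exposure in 96-well plates, responses at five concentrations were used to interpolate endpoints linearly. Here, GI50 denotes the concentration required for 50% inhibition of growth. TGI: total growth inhibition.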

As for `COc1ccc(CN2C(=O)C(Cc3cc(OC)c(OC)c(C)c3OC)N(C(=O)OC(C)C)C(=O)/C2=C/c2cc(OC)c(OC)c(C)c2OC)cc1` (centres undefined), the TGI in assay [1], in [2], in assay [3], in assay [4], in [5] and in assay [6] was more than 100 µM in each case. In addition, the TGI in assay [7], in assay [8] and in assay [9] was more than 100 µM each time.
As for `O=C1OC(c2ccccc2)C2CC3CC4(CCC3CN12)OCCO4` (centres undefined), the TGI in [2], in [3], in assay [4], in assay [6], in [7] and in assay [8] was more than 100 µM each time. The same compound showed a TGI in [9] of more than 100 µM.
As to `C[C@]12CCC3[C@@H](C[C@H]4OC(=O)[C@@]35CCC(=O)C=C45)C1CCC2=O` (some centres undefined), the TGI in assay [1], in assay [2], in assay [3], in assay [4], in [5] and in assay [7] was more than 100 µM each time. Besides, the TGI in [8] and in assay [9] was more than 100 µM each time.
With `CN(C)c1ccccc1CC(c1c[nH]c2ccccc12)c1c[nH]c2ccccc12`, the TGI in assay [1] stood at 31.4 µM; in [2], 30.5 µM; in [3], 25.7 µM; in [4] it was 21.3 µM; in [5], 22.6 µM; in assay [6], 21.1 µM. Moreover, the TGI in assay [7] worked out at 29.3 µM; in assay [8] it was 17.8 µM; in assay [9] it was 28.8 µM.
Take `O=C(c1ccccc1)c1ccc(Cl)c([N+](=O)[O-])c1`: the GI50 was 3.61 µM in assay [10]; 4.38 µM in [2]; 19.8 µM in assay [3]; 16.2 µM in [4]; 1.73 µM in [6]; 2.96 µM in assay [7]. The GI50 was 3.43 µM in [8] and 14.7 µM in assay [9]. Besides, the TGI in [10] was 11.7 µM; in assay [2], 18.7 µM; in assay [3] it was 51.7 µM; in assay [4], 32.8 µM; in assay [6], 3.13 µM; in [7], 6.89 µM. Moreover, the values for the TGI in assay [8] and in [9] were 11.1 µM and 28.3 µM, respectively.
For the compound `Cc1cc(C)nc(NS(=O)(=O)c2ccc(NC(=O)c3cccc4c(Nc5ccc(S(=O)(=O)Nc6nc(C)cc(C)n6)cc5)c5ccccc5nc34)cc2)n1`, the TGI in [1] is 56.7 µM; in assay [4], 57.3 µM; in assay [6], 64.1 µM; in [7], 70.4 µM; in [8], 43.9 µM; in [9], 36.6 µM.
With `O=c1c2cc(Br)ccc2[nH]c(=S)n1-c1ccc(Br)cc1`, the TGI in [1], in [3], in assay [4], in assay [5], in assay [6] and in assay [7] was more than 100 µM throughout. For the same compound, the TGI in assay [8] is more than 100 µM.
As for `Cc1cc2cc(Cl)ccc2nc1C(=O)c1ccccc1`, the TGI in assay [1], in [2], in [3], in [4], in [5] and in assay [6] was more than 100 µM each time. In addition, the TGI in assay [7] and in [9] was more than 100 µM throughout.
In the case of `O=C1C(c2ccc([N+](=O)[O-])cc2)=[N+]([O-])c2ccccc21`, the TGI is more than 100 µM in [1]; 47.5 µM in assay [2]; more than 100 µM in assay [3]; 63.4 µM in [4]; 21.7 µM in assay [6]; more than 100 µM in assay [7]. Moreover, the values for the TGI in assay [8] and in assay [9] were more than 100 µM and 31.5 µM, respectively.
As to `O=C(CCc1nnc2s/c(=C\c3ccc4c(c3)OCO4)c(=O)n12)Nc1cc(Cl)ccc1Cl`, the TGI in assay [1], in [2], in [3], in [4], in [5] and in [6] was more than 100 µM in each case. In addition, the TGI in assay [7], in assay [8] and in assay [9] was more than 100 µM throughout.
On to `CCOC(=O)NC(=O)c1cn(CCCCCOC(=O)NCCCCCCNC(=O)OCCCCCn2cc(C(=O)NC(=O)OCC)c(=O)[nH]c2=O)c(=O)[nH]c1=O`, for which the TGI in assay [1], in assay [3], in [5], in assay [6], in assay [7] and in assay [8] was more than 100 µM throughout. This compound also showed a TGI in [9] of more than 100 µM.
Turning to `O=c1oc2c3ccc4ccccc4c3n(CCN3CCOCC3)c2c2ccccc12`, the TGI in [1], in assay [5], in assay [6] and in assay [8] was more than 100 µM throughout.
On to `COc1ccc2c(c1)CCc1cnn(C3OC(COC(C)=O)C(OC(C)=O)C(OC(C)=O)C3OC(C)=O)c1-2` (centres undefined), for which the TGI in [2], in assay [3], in assay [4], in assay [5], in assay [7] and in assay [8] was more than 100 µM throughout. The compound also had a TGI in assay [9] of more than 100 µM.
For the compound `C=CCCC(O)c1ccc(C(O)CCCCCCCCCCCC)o1` (centres undefined), the GI50 in assay [10] is 20.1 µM; in [2], 21.5 µM; in assay [3], 21.7 µM; in [4], 19.3 µM; in assay [5] it was 21.4 µM; in assay [6] it was 30.9 µM. The GI50 in assay [7] was 28.6 µM; in assay [8], 32.3 µM; in assay [9], 20.1 µM. Also, the TGI in assay [10] turned out to be 38.5 µM; in [2] it was 41.4 µM; in assay [3] it was 43.9 µM; in assay [4], 34.7 µM; in assay [5], 37.2 µM; in assay [6], 92.9 µM. The TGI in assay [7] is 89.4 µM; in assay [8] it was more than 100 µM; in assay [9], 35.7 µM.
As for `COC(=O)CCC(=O)CC(=O)C(=O)Nc1ccc(F)cc1`, the TGI in assay [1], in [2], in assay [3], in assay [4], in [5] and in assay [6] was more than 100 µM each time. Also, the TGI in [7], in [8] and in [9] was more than 100 µM throughout.
Consider `[N-]=[N+]=Nc1ccccc1-[n+]1noc([O-])c1Br`, for which the TGI in assay [1], in assay [3], in [4], in assay [6], in assay [7] and in [8] was more than 100 µM throughout. Also, in assay [9], the TGI was more than 100 µM.
For the compound `COCC1C(=O)c2cc3c(cc2C12C=CC1(C=C2)OCCO1)OCO3` (centres undefined), the TGI in assay [1] came out at 27.4 µM; in [3], 22.8 µM; in [4], 26.9 µM; in assay [6], 27.4 µM; in assay [7], 24.5 µM; in assay [8] it was 15 µM.
For the compound `CNc1nnnn1C1OC(CO)C(O)C1O` (centres undefined), the TGI in [1], in assay [2], in [3], in [5], in [7] and in [8] was more than 100 µM each time. In assay [9], this compound displayed a TGI of more than 100 µM.
Turning to `COC(=O)CSc1ccccc1`, the TGI was 59.8 µM in assay [1]; more than 100 µM in [2]; more than 100 µM in assay [4]; more than 100 µM in assay [5]; more than 100 µM in assay [6]; 46.4 µM in assay [7]. Besides, the TGI in assay [8] and in assay [9] was more than 100 µM throughout.
In the case of `N#Cc1ccc(/C=N\N2C(=O)c3ccccc3C2=O)cc1`, the TGI in assay [1], in [2], in assay [3], in [4], in [5] and in assay [6] was more than 100 µM in each case. Also, the TGI in assay [7], in assay [8] and in assay [9] was more than 100 µM each time.
On to `Cn1c(=O)nc2n(-c3ccc(F)cc3)c3ccccc3nc-2c1=O`, for which the TGI in assay [1] was 23 µM; in [2], 42.2 µM; in [3], more than 100 µM; in assay [4] it was 42.8 µM; in [5] it was 49.8 µM; in assay [6], 27.8 µM. The TGI stood at 51.1 µM in [7], 38.7 µM in assay [8] and 25.8 µM in assay [9].
`COC(=O)NNc1c([N+](=O)[O-])cnn(-c2ccccc2)c1=O`: the TGI in assay [1] stood at 5.51 µM; in assay [2], 8.23 µM; in assay [3], 9.78 µM; in assay [4], 5.82 µM; in [5], 9.72 µM; in assay [6], 3.85 µM. In addition, the TGI in [7] was 11.5 µM; in assay [8], 3.81 µM; in assay [9], 8.36 µM.
`COc1ccc2nc3cc(Cl)ccc3c(NCCC(=O)OCC(O)C(O)C(O[C@H](C)C(=O)NC(C)C(=O)NC(CCC(N)=O)C(=O)OCc3ccccc3)C(C=O)NC(C)=O)c2c1` (some centres undefined): the TGI in assay [1] was more than 100 µM; in assay [2], 47 µM; in assay [3], 37.8 µM; in assay [4], 27.5 µM; in assay [5] it was 33.6 µM; in assay [6] it was 34.3 µM. Moreover, the TGI in [7] was found to be 41.8 µM; in [8] it was 41.3 µM; in [9], 30.2 µM.
Turning to `Cc1cc(Cl)ccc1NC(=O)/C(Cl)=C(/Cl)C(=O)O`, the TGI in [10] is 47.8 µM; in assay [2], 36.2 µM; in assay [4], 67.8 µM; in assay [5], 39.3 µM; in assay [8] it was 57.7 µM; in assay [9], more than 100 µM.
`COc1ccc(C(=O)C(c2ccc(OC)cc2)C2C(=O)Oc3ccccc32)cc1` (centres undefined): the GI50 in assay [1], in assay [2], in assay [3], in assay [4], in [5] and in assay [6] was more than 100 µM throughout. The GI50 in assay [7], in assay [8] and in [9] was more than 100 µM throughout. Also, the TGI in assay [1], in [2], in assay [3], in [4], in assay [5] and in assay [6] was more than 100 µM throughout. In addition, the TGI in [7], in [8] and in assay [9] was more than 100 µM throughout.
With `COc1ccc(C(=O)/C(=N/Nc2ccccc2)c2ccc(OC)cc2)cc1`, the TGI in assay [1], in [2], in [3], in assay [4], in [5] and in [6] was more than 100 µM each time. The TGI in [7], in [8] and in [9] was more than 100 µM each time.
Consider `COc1ccc(NC(=O)CC/C(CC(=O)c2ccccc2Cl)=N\Nc2nnc(C)n2N)cc1`, for which the TGI in [1], in assay [2], in assay [3], in assay [4], in assay [5] and in assay [6] was more than 100 µM throughout. For the same compound, the TGI in assay [7] and in assay [8] was more than 100 µM each time.
For `O=C(CC1(O)C(=O)Nc2c(Cl)cccc21)c1ccccc1` (centres undefined), the TGI in assay [1], in assay [2], in assay [3], in assay [4], in assay [5] and in [6] was more than 100 µM in each case. Moreover, the TGI in [7], in assay [8] and in [9] was more than 100 µM each time.
Take `CN(C)c1ccc(/C=C/C(=O)c2ccccc2)cc1Br`: the TGI in [1] was 43 µM; in assay [2], more than 100 µM; in assay [4] it was 40 µM; in [5] it was 37.5 µM; in assay [6], 34.5 µM; in assay [7] it was 44.5 µM. The TGI in [8] was 51 µM; in [9], 39.1 µM.
